Measured values taken from patent US5480971A, “Peralkylated oligopeptide mixtures” (Houghten Pharmaceuticals, Inc., priority 1994, dated 1996).
≈ marks a conversion by molar mass, not a printed value. Square brackets hold non-standard residues; d marks the D form. Ends that are not written are not given here. Peptide text beside a SMILES is read from it. * marks the point of attachment. X1 = C[N+](C)(C)[C@@H](Cc1ccccc1)C(=O)*; X2 = CC(C)C[C@@H](C(=O)*)[N+](C)(C)C; NMeF = CN[C@@H](Cc1ccccc1)C(=O)O; NMeI = CC[C@H](C)[C@H](NC)C(=O)O

Columns and labels:
[1] = tested on: Staphylococcus aureus (ATCC 29213); assay: microbe, parasite or virus in culture; details: for S. aureus IC50: Example 8, individual peptides; for S. aureus MIC: no change in OD620 between time 0 and 21 hours; for MIC: Staphylococcus aureus, ATCC29213, read-out: MIC Value; for MIC Value: Table 4, minimum concentration needed to inhibit about 100 percent bacterial growth
Experimental: Concentrations of those 5X permethylated peptide mixtures that inhibited cellular growth by 50 percent (IC50) values were determined.
This culture was reinoculated and incubated at 37° C. to reach the exponential phase of bacterial growth; i.e., a final bacterial suspension containing about 10^5 to 5×10^5 colony-forming units (CFU)/ml. The concentration of cells was established by plating 100 μl of different dilutions of the culture solution (e.g., 10^-2, 10^-3 and 10^-4) onto solid agar plates. Following an overnight (about 18 hours) incubation at 37° C., the CFU thus formed were counted on each agar plate.
96-Well tissue culture plates were utilized, with eight wells per plate containing only medium as control blanks, whereas eight other wells contained medium plus cells as a positive growth control. These controls were used to detect possible medium contamination and to provide a measure of uninhibited growth of the microorganisms.
For determination of IC50 values (concentrations necessary to inhibit 50 percent growth of bacteria), peralkylated oligopeptide sets were added to the bacterial suspension at concentrations noted before. The plates were incubated overnight (about 18 hours) at 37° C., and the optical density (OD) determined at 620 nm after different times of incubation. IC50 values were then determined from the OD data.
Assays using S. aureus were carried out as described before. […] To initiate the exponential phase of bacterial growth prior to the assay, a sample of bacteria grown overnight (about 18 hours) at 37° C. in cation-adjusted Mueller Hinton broth (CAMM, for E. coli and S. aureus--Becton Dickinson Microbiology Systems, Cockeysville, Md.), or Brain Heart Infusion broth (BHI, for S. sanguis), was reinoculated in a 2X broth and incubated at 37° C. MRSA was grown at 35° C. in cation-adjusted MH broth in a similar manner. Prior to the assay, two colonies of newly grown C. albicans culture were inoculated in 5ml of phosphate buffer saline (PBS-35mM phosphate buffer, 0.15M NaCl-pH 7.0), and diluted in yeast medium broth. The bacteria and yeast suspensions were adjusted turbidimetrically so that a final concentration of 10^5 to 5×10^5 colony-forming units (CFU)/ml was used in all assays.
The plates were then incubated overnight at 37° C. […] The concentration necessary to inhibit 50 percent bacterial growth (IC50) was then calculated using the software program […] (ISI, San Diego, Calif.). […] In a similar manner, the plates containing C. albicans suspension were incubated for 48 hours at 30° C.

[2] = tested on: Streptococcus sangus ATCC 10566; assay: Assays against S. sanguis (growth inhibition); format: cell-based, Streptococcus sanguis; details: for S. sanguis IC50 / S. sanguis MIC: Table 6
Experimental: The permethylated amino acid and peptides were screened against S. aureus and Streptoccus sanguis, as described below, and IC50 and MIC (minimum inhibitory concentration; minimum concentration needed to inhibit about 100 percent bacterial growth) values were determined. […]
(§1) Assays using S. aureus were carried out as described before. Methicillin-resistant Staphylococcus aureus (MRSA) ATCC 33591, Streptococcus sangus ATCC 10566, Escherichia coli ATCC 25922 and Candida albicans ATCC 10231 were used in the bioassays (ATCC, Rockville, Md.). To initiate the exponential phase of bacterial growth prior to the assay, a sample of bacteria grown overnight (about 18 hours) at 37° C. in cation-adjusted Mueller Hinton broth (CAMM, for E. coli and S. aureus--Becton Dickinson Microbiology Systems, Cockeysville, Md.), or Brain Heart Infusion broth (BHI, for S. sanguis), was reinoculated in a 2X broth and incubated at 37° C. MRSA was grown at 35° C. in cation-adjusted MH broth in a similar manner. Prior to the assay, two colonies of newly grown C. albicans culture were inoculated in 5ml of phosphate buffer saline (PBS-35mM phosphate buffer, 0.15M NaCl-pH 7.0), and diluted in yeast medium broth. The bacteria and yeast suspensions were adjusted turbidimetrically so that a final concentration of 10^5 to 5×10^5 colony-forming units (CFU)/ml was used in all assays.
(§2) The assays were carried out in 96-well tissue culture plates (Costar, Pleasanton, Calif.) as described in Blondelie et al., Biochemistry, 31:12688-12694 (1992), incorporated herein by reference. In brief, the bacterial suspension was added to an equal volume of the mixture of permeythylated compounds diluted in H2 O at concentrations derived from serial two-fold dilutions varying from 2500 μg/ml to 1 μg/ml. The plates were then incubated overnight at 37° C. The relative percent growth found for each compound (or mixture of compounds) was then determined by the optical density at 620 nm (OD620) using a Titertek Multiskan Plus apparatus (Flow Laboratories, McLean, Va.). The concentration necessary to inhibit 50 percent bacterial growth (IC50) was then calculated using the software program […] (ISI, San Diego, Calif.). […] In a similar manner, the plates containing C. albicans suspension were incubated for 48 hours at 30° C.

[3] = tested on: Methicillin-resistant Staphylococcus aureus (MRSA) ATCC 33591; assay: Antimicrobial activity against MRSA (growth inhibition); format: cell-based; details: for MRSA MIC: no change in OD620 between time 0 and 21 hours
Experimental: as §1, §2

[4] = tested on: human red blood cells (RBC's); assay: Hemolytic activity on human red blood cells; format: cell-based; details: 0.25 percent RBC suspension, one hour at 37° C.
Experimental: Hemolytic activities of the peptides were determined using human red blood cells (RBC's). The assays were carried out in 96-well tissue culture plates against a 0.25 percent RBC suspension as described in Blondelie et al., Biochim. Biophys. Acta, 1202:331-336 (1993), incorporated herein by reference. Briefly, individual permethylated peptides or peptide mixtures were added to the RBC solution at concentrations derived from serial two-fold dilutions varying from […]. Following a one hour incubation at 37° C., the plates were centrifuged at 2800 rpm for 5 minutes. The supernatant was separated from the pellet and its OD measured at 414 nm. Triton (1 percent) and PBS were used as 100 percent and 0 percent hemolysis controls, respectively.

[5] = Merck Index, 10th ed.; cited from earlier work

Molecule | S. aureus IC50 [1] [µg/mL] | S. aureus MIC [1] [µg/mL] | S. sanguis IC50 [2] [µg/mL] | S. sanguis MIC [2] [µg/mL] | MRSA IC50 [3] [µg/mL] | MRSA MIC [3] [µg/mL] | % hemolysis at 350 μg/ml [4] [%] | also measured
PerM-PhePheIlePhePheHis (FFIFFH; also: permethylated) [PerM-FFIFFH] | 14 | 31 to 42 | 18 | 30 to 40 | 19 | 21 to 42 | 0 | 
CNC(=O)[C@H](Cc1ccccc1)N(C)C(=O)[C@H](Cc1ccccc1)N(C)C(=O)[C@H](Cc1ccccc1)N(C)C(=O)[C@H](Cc1ccccc1)N(C)C(=O)[C@H](Cc1ccccc1)N(C)C(=O)[C@H](Cc1ccccc1)[N+](C)(C)C [PerA-FFFFFF, PerM-PhePhePhePhePhePhe] (X1-[NMeF][NMeF][NMeF][NMeF][NMeF]-NHMe) |  |  |  |  |  |  | 16 | S. aureus MIC ([1]; listed as permethylated FFFFFF-NH2): lower than 15 μg/ml
C[C@]12CC[C@H]3[C@@H](CCC4=CC(=O)CC[C@@]43C)[C@@H]1CC[C@@H]2O [testosterone] |  |  |  |  |  |  |  | solubility in water [5]: insoluble in water
CNC(=O)[C@H](Cc1ccccc1)N(C)C(=O)[C@H](Cc1ccccc1)N(C)C(=O)[C@H](Cc1ccccc1)N(C)C(=O)[C@H](Cc1ccccc1)N(C)C(=O)[C@H](Cc1ccccc1)N(C)C(=O)[C@H](CC(C)C)[N+](C)(C)C [PerM-LFFFFF, PerM-LeuPhePhePhePhePhe] (X2-[NMeF][NMeF][NMeF][NMeF][NMeF]-NHMe) |  |  |  |  |  |  | 10 | 
PerM-LeuPhePhePheHisPhe (LFFFHF; also: permethylated) [PerM-LFFFHF] | 12 | 21 to 31 | 19 | 30 to 40 | 13 | 15 to 21 | 4 | 
CC[C@H](C)[C@@H](C(=O)N(C)[C@@H](Cc1ccccc1)C(=O)N(C)[C@@H](Cc1ccccc1)C(=O)N(C)[C@@H](Cc1ccccc1)C(=O)NC)N(C)C(=O)[C@H](Cc1ccccc1)N(C)C(=O)[C@H](Cc1ccccc1)[N+](C)(C)C [PerM-FFIFFF, PerM-PhePheIlePhePhePhe] (X1-[NMeF][NMeI][NMeF][NMeF][NMeF]-NHMe) |  |  |  |  |  |  | 0 | S. aureus MIC ([1]; listed as permethylated FFIFFF-NH2): lower than 15 μg/ml
CC[C@H]1OC(=O)[C@H](C)[C@@H](O[C@H]2C[C@@](C)(OC)[C@@H](O)[C@H](C)O2)[C@H](C)[C@@H](O[C@@H]2O[C@H](C)C[C@H](N(C)C)[C@H]2O)[C@](C)(O)C[C@@H](C)C(=O)[C@H](C)[C@@H](O)[C@]1(C)O [Erythromycin, reference compound] |  |  |  |  |  |  |  | MIC [1]: 0.5 µM (≈ 0.367 µg/mL)
N-acetyl hexaPhe amide [N-Ac-hexaPhe, reference compound] |  |  |  |  |  |  |  | MIC Value [1]: > 500 µM
C[N+](C)(C)[C@@H](Cc1ccccc1)C(=O)N[C@@H](Cc1ccccc1)C(=O)N[C@@H](Cc1ccccc1)C(=O)N[C@@H](Cc1ccccc1)C(=O)N[C@@H](Cc1ccccc1)C(=O)N[C@@H](Cc1ccccc1)C(N)=O [reference compound] (X1-FFFFF-NH2) | > 250 |  |  |  |  |  |  | 
PerM-PhePhePhePheHisPhe (FFFFHF; also: permethylated) [PerM-FFFFHF] | 11 | 15 to 21 | 19 | 30 to 40 | 18 | 21 to 42 | 3 | 
CC(=O)[C@H]1CC[C@H]2[C@@H]3CCC4=CC(=O)CC[C@]4(C)[C@H]3CC[C@]12C [progesterone] |  |  |  |  |  |  |  | solubility in water [5]: insoluble in water
Cc1onc(-c2ccccc2)c1C(=O)N[C@@H]1C(=O)N2[C@@H]1SC(C)(C)[C@@H]2C(=O)O [Oxacillin, reference compound] |  |  |  |  |  |  |  | MIC [1]: 0.125 µM (≈ 0.0502 µg/mL)
PerM-LeuPheIlePheHisPhe (LFIFHF; also: permethylated) [PerM-LFIFHF] | 12 | 21 to 31 | 13 | 20 to 40 | 14 | 15 to 21 | 7 | 
PerM-LeuPheIlePhePheHis (LFIFFH; also: permethylated) [PerM-LFIFFH] | 12 | 21 to 31 | 19 | 30 to 40 | 20 | 25 to 42 | 1 | 
PerM-LeuPhePhePhePheHis (LFFFFH; also: permethylated) [PerM-LFFFFH] | 13 | 21 to 42 | 22 | 30 to 40 | 16 | 21 to 42 | 3 | 
CC[C@H](C)[C@@H](C(=O)N(C)[C@@H](Cc1ccccc1)C(=O)N(C)[C@@H](Cc1ccccc1)C(=O)N(C)[C@@H](Cc1ccccc1)C(=O)NC)N(C)C(=O)[C@H](Cc1ccccc1)N(C)C(=O)[C@H](CC(C)C)[N+](C)(C)C [PerM-LFIFFF, PerM-LeuPheIlePhePhePhe] (X2-[NMeF][NMeI][NMeF][NMeF][NMeF]-NHMe) |  |  |  |  |  |  | 12 | S. aureus MIC ([1]; listed as permethylated LFIFFF-NH2): lower than 15 μg/ml
CNC(=O)[C@H](Cc1ccccc1)[N+](C)(C)C [PerA-F, permethylated Phe N-methylamide] |  |  |  |  |  |  |  | MIC Value [1]: > 500 µM; MIC Value ([2]; Table 5): > 500 µM; IC50 ([2]; Table 5, average results): > 500 µM
